Assays:
[1] = tested on: LPS and Pam3CSK4 responses in RAW264.7 cells; test: qRT-PCR of Toll-like receptor-dependent inflammatory gene expression in RAW264.7 cells (LPS, Pam3CSK4); assay type: cell-based, mouse; conditions: 100 nM
Protocol: Figure 6 Inhibition of NOD-Dependent Inflammatory Gene Expression in RAW264.7 Cells (A and B) Cells were pre-treated with 1, 10, or 100 nM inhibitors for 30 min and stimulated with 10 μg/ml MDP (A) or Tri-DAP (B) for 18–24 hr in triplicate. RNA samples were isolated and changes in gene expression were analyzed using gene-specific primers using SYBR qRT-PCR. All values were normalized to the levels of GAPDH. (C and D) Lack of inhibition of Toll-like receptor-dependent inflammatory gene expression in RAW264.7 cells. Experiments were performed as described above, except cells were stimulated with 10 ng/ml E. coli LPS (C) or 500 ng/ml Pam3CSK4 (D). All experiments were performed in triplicate; error bars indicate SD values.
40C centrifuge at 14,000 rpm for 15 min to collect lysates. Protein concentrations were measured using […] protein assay reagent (Pierce). […]
For ADPGlo (Promega) assays, 1 ng Abl or 10 ng of RIPK2 was diluted in reaction buff er (40 mM Tris-HCl pH 7.5, 20 mM MgCl2, 0.5 m M DTT, 0.01% BSA) supplemented with 50 µM ATP and 10-point dose range of inhibitors. […] Luminescent signal was generated by addition of 10 µL of kinase detection reagent for 30 minutes at room temperature and determined using Victor3V platereader (Perkin Elmer). Specific signal was calculated by subtracting values in the wells without protein and inhibitor from the values in the test wells. […]

NOD2-RIPK2 interaction = NOD2-RIPK2 interaction (Homo sapiens, UniProt O43353); test: HA-immunoprecipitation of RIPK2 with inducible HA-NOD2 in U2OS cells; conditions: 100 nM, 24 hr
Sequence of NOD2-RIPK2 interaction (O43353 whole entry): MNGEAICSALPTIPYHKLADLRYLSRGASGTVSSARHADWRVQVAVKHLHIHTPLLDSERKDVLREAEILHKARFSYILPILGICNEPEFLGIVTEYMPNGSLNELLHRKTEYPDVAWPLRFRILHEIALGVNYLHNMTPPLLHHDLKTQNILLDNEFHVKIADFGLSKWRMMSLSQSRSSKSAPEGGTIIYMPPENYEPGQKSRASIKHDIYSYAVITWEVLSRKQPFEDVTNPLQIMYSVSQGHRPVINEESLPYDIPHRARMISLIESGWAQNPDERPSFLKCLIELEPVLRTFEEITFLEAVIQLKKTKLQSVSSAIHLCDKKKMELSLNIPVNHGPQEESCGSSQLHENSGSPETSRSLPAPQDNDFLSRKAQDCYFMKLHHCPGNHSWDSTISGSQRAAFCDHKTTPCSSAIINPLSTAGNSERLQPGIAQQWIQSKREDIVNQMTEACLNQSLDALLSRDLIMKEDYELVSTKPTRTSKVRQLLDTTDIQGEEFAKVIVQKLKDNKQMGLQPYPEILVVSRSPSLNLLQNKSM
Sequence of NOD2-RIPK2 interaction (Q9HC29 whole entry partner): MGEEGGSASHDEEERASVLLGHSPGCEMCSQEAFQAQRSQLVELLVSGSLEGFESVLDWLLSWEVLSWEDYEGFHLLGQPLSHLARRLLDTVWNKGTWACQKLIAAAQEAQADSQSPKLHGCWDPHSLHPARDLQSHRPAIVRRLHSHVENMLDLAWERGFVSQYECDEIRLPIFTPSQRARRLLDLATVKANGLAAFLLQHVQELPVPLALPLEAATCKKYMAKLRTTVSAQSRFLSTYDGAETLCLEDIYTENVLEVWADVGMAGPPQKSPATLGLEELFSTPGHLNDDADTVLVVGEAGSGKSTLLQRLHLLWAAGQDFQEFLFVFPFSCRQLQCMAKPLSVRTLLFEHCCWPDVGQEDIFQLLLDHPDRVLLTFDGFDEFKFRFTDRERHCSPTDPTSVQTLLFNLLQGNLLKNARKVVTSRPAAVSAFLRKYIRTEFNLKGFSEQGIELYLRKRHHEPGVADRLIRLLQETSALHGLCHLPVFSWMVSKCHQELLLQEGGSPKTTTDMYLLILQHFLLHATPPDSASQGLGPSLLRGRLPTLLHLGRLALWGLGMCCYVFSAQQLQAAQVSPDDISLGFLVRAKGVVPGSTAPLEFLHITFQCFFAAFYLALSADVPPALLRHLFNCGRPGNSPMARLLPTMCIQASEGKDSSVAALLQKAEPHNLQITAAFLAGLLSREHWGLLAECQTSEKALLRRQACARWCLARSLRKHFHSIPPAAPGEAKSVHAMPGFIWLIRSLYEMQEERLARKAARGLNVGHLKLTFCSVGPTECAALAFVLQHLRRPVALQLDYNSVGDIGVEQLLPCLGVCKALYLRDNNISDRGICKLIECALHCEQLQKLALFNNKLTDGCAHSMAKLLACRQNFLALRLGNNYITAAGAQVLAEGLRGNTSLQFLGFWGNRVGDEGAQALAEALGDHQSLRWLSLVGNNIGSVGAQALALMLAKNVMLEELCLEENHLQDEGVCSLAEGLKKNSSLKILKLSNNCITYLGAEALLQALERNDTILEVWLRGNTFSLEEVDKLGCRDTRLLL

Cc1ccc(C(=O)Nc2ccc(CN3CCN(C)CC3)c(C(F)(F)F)c2)cc1C#Cc1cnc2cccnn12 [ponatinib, 3-[2-(imidazo[1,2-b]pyridazin-3-yl)ethynyl]-4-methyl-N-{4-[(4-methylpiperazin-1-yl)methyl]-3-(trifluoromethyl)phenyl}benzamide]
LPS and Pam3CSK4 responses [1]: partially attenuated
NOD2-RIPK2 interaction (NOD2-RIPK2 interaction): stably maintained

— publication PMC4579271, “Inflammatory Signaling by NOD-RIPK2 Is Inhibited by Clinically Relevant Type II Kinase Inhibitors” (Chemistry & Biology, 2015)
